Test results from ChEMBL document CHEMBL3797114, “Design, synthesis and biological evaluation of 6-substituted pyrrolo[2,3-d]pyrimidines as dual inhibitors of TS and AICARFTase and as potential antitumor agents” (Eur J Med Chem, 2016).
Activity calls are given as the source filed them. The calls are words filed in the database; no cut-off is given here.

Legend:
A549 = assay: Antiproliferative activity against human A549 cells after 72 hrs by MTT assay in presence of leucovorin; assay type: functional, cell-based; conditions: A549, 72 h
KB [1] = assay: Antiproliferative activity against human KB cells after 72 hrs by MTT assay in presence of leucovorin; assay type: functional, cell-based
[2] = Antiproliferative activity against human SW620 cells after 72 hrs by MTT assay in presence of leucovorin; assay type: functional, cell-based; conditions: SW-620, 72 h
SW-620 [3] = assay: Induction of apoptosis in human SW620 cells assessed as early apoptotic cells at 10 uM after 48 hrs by annexin V-FITC/PI staining based flow cytometry in presence of leucovorin (reference value: 0.6 %); assay type: functional
SW-620 [4] = assay: Induction of apoptosis in human SW620 cells assessed as necrotic cells at 10 uM after 48 hrs by annexin V-FITC/PI staining based flow cytometry in presence of leucovorin (reference value: 9 %); assay type: functional
SW-620 [5] = assay: Induction of apoptosis in human SW620 cells assessed as late apoptotic cells at 10 uM after 48 hrs by annexin V-FITC/PI staining based flow cytometry in presence of leucovorin (reference value: 6.4 %); assay type: functional
[6] = Cell cycle arrest in human SW620 cells assessed as accumulation at G1 phase at 10 uM after 96 hrs by propidium iodide staining based flow cytometry in presence of leucovorin (reference value: 62.4 %); assay type: functional; conditions: SW-620
KB [7] = assay: Inhibition of colony formation in human KB cells at 1 uM measured after 10 to 14 days by methylene blue staining based assay presence of leucovorin; assay type: functional
[8] = Cell cycle arrest in human SW620 cells assessed as accumulation at S phase at 10 uM after 96 hrs by propidium iodide staining based flow cytometry in presence of leucovorin (reference value: 27.3 %); assay type: functional; conditions: SW-620
[9] = Cell cycle arrest in human SW620 cells assessed as accumulation at G2 phase at 10 uM after 96 hrs by propidium iodide staining based flow cytometry in presence of leucovorin (reference value: 10.3 %); assay type: functional; conditions: SW-620
SW-620 [10] = assay: Induction of apoptosis in human SW620 cells assessed as viable cells at 10 uM after 48 hrs by annexin V-FITC/PI staining based flow cytometry in presence of leucovorin (reference value: 84.0 %); assay type: functional; conditions: SW-620, 48 h, read-out: Activity
[11] = target: Thymidylate synthase (Homo sapiens) (UniProt P04818); assay: Inhibition of thymidylate synthase in human SW620 cells assessed as growth inhibition at 0.001 to 10 uM coincubated with excessive thymidine; assay type: cell-based; conditions: SW-620
Chain of Thymidylate synthase (Homo sapiens) (P04818 2-313 limits assumed): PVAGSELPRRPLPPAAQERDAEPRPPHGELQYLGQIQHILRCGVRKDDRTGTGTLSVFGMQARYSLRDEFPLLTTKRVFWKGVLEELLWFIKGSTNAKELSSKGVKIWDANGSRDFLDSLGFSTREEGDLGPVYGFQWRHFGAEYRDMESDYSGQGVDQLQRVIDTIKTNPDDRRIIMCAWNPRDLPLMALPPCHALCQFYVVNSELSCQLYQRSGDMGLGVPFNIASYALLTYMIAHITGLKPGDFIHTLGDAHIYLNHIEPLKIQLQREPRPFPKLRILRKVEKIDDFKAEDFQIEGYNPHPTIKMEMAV

[12] = target: Thymidylate synthase/GAR transformylase/AICAR transformylase (Homo sapiens) (UniProt P04818+P31939+P22102); assay: Inhibition of thymidylate synthase/GARFTase/AICARFTase in human SW620 cells assessed as growth inhibition at 0.001 to 10 uM coincubated with thymidine and adenosine; assay type: cell-based; conditions: SW-620
Chain of Thymidylate synthase/GAR transformylase/AICAR transformylase (Homo sapiens) (P04818 whole entry, looked up): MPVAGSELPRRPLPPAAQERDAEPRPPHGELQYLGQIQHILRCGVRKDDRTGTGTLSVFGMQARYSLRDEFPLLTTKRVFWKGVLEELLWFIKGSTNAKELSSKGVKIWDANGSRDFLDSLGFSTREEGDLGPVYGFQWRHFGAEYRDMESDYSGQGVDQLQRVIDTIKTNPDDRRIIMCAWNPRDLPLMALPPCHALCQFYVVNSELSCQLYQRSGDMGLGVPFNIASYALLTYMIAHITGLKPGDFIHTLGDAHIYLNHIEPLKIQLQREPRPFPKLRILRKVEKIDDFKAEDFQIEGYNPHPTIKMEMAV
Chain of Thymidylate synthase/GAR transformylase/AICAR transformylase (Homo sapiens) (P22102 whole entry, looked up): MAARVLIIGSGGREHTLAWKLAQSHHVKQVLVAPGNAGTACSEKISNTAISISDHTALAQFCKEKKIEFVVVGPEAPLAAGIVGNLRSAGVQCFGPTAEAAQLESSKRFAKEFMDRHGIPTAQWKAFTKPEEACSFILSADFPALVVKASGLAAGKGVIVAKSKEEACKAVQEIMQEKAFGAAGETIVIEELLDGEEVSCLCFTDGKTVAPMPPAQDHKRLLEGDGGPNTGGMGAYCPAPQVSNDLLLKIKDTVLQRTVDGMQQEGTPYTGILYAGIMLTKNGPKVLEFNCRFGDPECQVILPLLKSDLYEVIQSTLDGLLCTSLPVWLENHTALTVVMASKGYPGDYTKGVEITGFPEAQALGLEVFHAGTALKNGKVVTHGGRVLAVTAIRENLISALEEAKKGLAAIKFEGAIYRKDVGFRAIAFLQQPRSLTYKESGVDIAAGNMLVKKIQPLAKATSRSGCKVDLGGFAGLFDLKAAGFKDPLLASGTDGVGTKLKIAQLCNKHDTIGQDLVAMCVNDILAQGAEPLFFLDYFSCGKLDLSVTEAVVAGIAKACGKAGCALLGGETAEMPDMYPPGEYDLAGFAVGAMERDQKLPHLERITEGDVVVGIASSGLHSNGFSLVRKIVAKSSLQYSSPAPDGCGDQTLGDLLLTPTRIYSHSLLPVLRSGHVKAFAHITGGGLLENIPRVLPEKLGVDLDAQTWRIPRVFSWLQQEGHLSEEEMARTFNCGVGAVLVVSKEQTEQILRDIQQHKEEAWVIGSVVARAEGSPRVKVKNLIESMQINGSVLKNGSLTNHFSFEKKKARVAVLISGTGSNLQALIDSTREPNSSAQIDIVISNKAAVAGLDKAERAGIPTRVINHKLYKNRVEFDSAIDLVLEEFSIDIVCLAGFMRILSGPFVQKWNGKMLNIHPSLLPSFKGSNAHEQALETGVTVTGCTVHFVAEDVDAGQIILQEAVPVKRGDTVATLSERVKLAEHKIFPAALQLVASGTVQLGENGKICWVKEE
Chain of Thymidylate synthase/GAR transformylase/AICAR transformylase (Homo sapiens) (P31939 whole entry, looked up): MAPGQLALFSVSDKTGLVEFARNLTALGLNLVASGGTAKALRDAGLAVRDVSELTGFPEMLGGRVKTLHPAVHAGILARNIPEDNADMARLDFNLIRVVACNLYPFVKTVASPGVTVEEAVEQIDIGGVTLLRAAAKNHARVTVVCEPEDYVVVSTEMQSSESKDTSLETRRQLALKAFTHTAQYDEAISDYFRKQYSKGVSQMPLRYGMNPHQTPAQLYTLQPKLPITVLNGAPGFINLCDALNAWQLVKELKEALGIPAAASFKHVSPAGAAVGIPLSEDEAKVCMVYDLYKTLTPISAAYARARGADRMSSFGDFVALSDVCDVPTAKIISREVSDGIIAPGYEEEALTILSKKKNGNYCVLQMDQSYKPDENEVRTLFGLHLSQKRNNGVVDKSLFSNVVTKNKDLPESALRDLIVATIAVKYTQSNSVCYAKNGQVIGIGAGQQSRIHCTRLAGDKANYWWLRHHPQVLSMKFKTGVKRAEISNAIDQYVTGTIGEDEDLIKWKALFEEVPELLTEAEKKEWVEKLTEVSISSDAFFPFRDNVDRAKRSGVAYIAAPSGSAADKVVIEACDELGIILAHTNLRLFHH

[13] = target: GAR transformylase/AICAR transformylase (Homo sapiens) (UniProt P31939+P22102); assay: Inhibition of GARFTase/AICARFTase in human SW620 cells assessed as growth inhibition at 0.001 to 10 uM coincubated with adenosine; assay type: cell-based; conditions: SW-620
Chain of GAR transformylase/AICAR transformylase (Homo sapiens) (P22102 whole entry, looked up): as the sequence (P22102 whole entry, looked up) above
Chain of GAR transformylase/AICAR transformylase (Homo sapiens) (P31939 whole entry, looked up): as the sequence (P31939 whole entry, looked up) above

[14] = target: Bifunctional purine biosynthesis protein ATIC (Homo sapiens) (UniProt P31939); assay: Inhibition of AICARFTase in human SW620 cells assessed as growth inhibition at 0.001 to 10 uM coincubated with AICA; assay type: cell-based; conditions: SW-620
Chain of Bifunctional purine biosynthesis protein ATIC (Homo sapiens) (P31939 whole entry, looked up): as above

[15] = target: Thymidylate synthase/AICAR transformylase (Homo sapiens) (UniProt P04818+P31939); assay: Inhibition of thymidylate synthase/AICARFTase in human SW620 cells assessed as growth inhibition at 0.001 to 10 uM coincubated with AICA and […]; assay type: cell-based; conditions: SW-620
Chain of Thymidylate synthase/AICAR transformylase (Homo sapiens) (P04818 whole entry, looked up): as the sequence (P04818 whole entry, looked up) above
Chain of Thymidylate synthase/AICAR transformylase (Homo sapiens) (P31939 whole entry, looked up): as the sequence (P31939 whole entry, looked up) above

Nc1nc2[nH]c(CCSCC(=O)NCc3ccccn3)cc2c(=O)[nH]1
IC50 (A549): 14.1 µM
IC50 (KB [1]): 28.4 µM
IC50 [2]: 36.1 µM

Nc1nc2[nH]c(CCSCCC(=O)NCc3cccnc3)cc2c(=O)[nH]1
IC50 (A549): 1.07 µM
Activity (SW-620 [3]): 1.1%
Activity (SW-620 [4]): 22%
Activity (SW-620 [5]): 25.1%
Activity [6]: 66.5%
inhibition at 1 µM (KB [7]): 70%
Activity [8]: 24.9%
IC50 (KB [1]): 0.648 µM
IC50 [2]: 0.665 µM
Activity [9]: 8.6%
viability at 10 µM (SW-620 [10]): 51.8%

Nc1nc2[nH]c(CCSCC(=O)NCc3cccnc3)cc2c(=O)[nH]1
IC50 (A549): 56.6 µM
IC50 (KB [1]): 37.5 µM
IC50 [2]: 25.3 µM

Nc1nc2[nH]cc(CCc3ccc(C(=O)N[C@@H](CCC(=O)O)C(=O)O)cc3)c2c(=O)[nH]1 [PEMETREXED]
IC50 (A549): 1.26 µM
Activity [6]: 45.8%
Activity [8]: 54.2%
IC50 [2]: 0.08 µM
Activity [9]: 0%

CN(Cc1cnc2nc(N)nc(N)c2n1)c1ccc(C(=O)N[C@@H](CCC(=O)O)C(=O)O)cc1 [METHOTREXATE]
IC50 (A549): 0.99 µM
IC50 [2]: 0.013 µM

Nc1nc2[nH]c(CCSCCC(=O)N[C@@H](CCC(=O)O)C(=O)O)cc2c(=O)[nH]1
IC50 (A549): 0.713 µM
growth inhibition (GI) [11]: inactive
Activity (SW-620 [3]): 1.5%
Activity (SW-620 [4]): 41.6%
growth inhibition (GI) [12]: inactive
growth inhibition (GI) [13]: inactive
Activity (SW-620 [5]): 34.8%
Activity [6]: 56.3%
inhibition at 1 µM (KB [7]): 80%
Activity [8]: 39.2%
growth inhibition (GI) [14]: inactive
growth inhibition (GI) [15]: inactive
IC50 (KB [1]): 0.324 µM
IC50 [2]: 0.387 µM
Activity [9]: 4.5%
viability at 10 µM (SW-620 [10]): 22.1%

Nc1nc2[nH]c(CCSCCC(=O)NCc3ccncc3)cc2c(=O)[nH]1
IC50 (A549): 7.87 µM
IC50 (KB [1]): 45.6 µM
IC50 [2]: 24.8 µM

Nc1nc2[nH]c(CCSCC(=O)N[C@@H](CCC(=O)O)C(=O)O)cc2c(=O)[nH]1
IC50 (A549): 0.668 µM
IC50 (KB [1]): 0.373 µM
IC50 [2]: 0.442 µM

Nc1nc2[nH]c(CCSCC(=O)NCc3ccncc3)cc2c(=O)[nH]1
IC50 (A549): 42.4 µM
IC50 (KB [1]): 14.1 µM
IC50 [2]: 22.7 µM

Nc1nc2[nH]c(CCSCCC(=O)NCc3ccccn3)cc2c(=O)[nH]1
IC50 (A549): 77.3 µM
IC50 (KB [1]): 8.93 µM
IC50 [2]: 11.9 µM
